# Measurements published in patent US20180071242A1, “SUBSTITUTED ACYLANILIDES AND METHODS OF USE THEREOF” (University of Tennessee Research Foundation, priority 2006, published 2018).
# How the values were obtained:
# [1] = system: orchidectomized (ORX) male Sprague-Dawley rats; experiment: Anabolic and androgenic activity in castrated (ORX) male rats; assay type: in vivo, rat; conditions: maximally stimulated
# Experimental: Anabolic and androgenic efficacy of compound of formula (I) administered by daily oral gavage were tested. The S-isomer of compound (I) [S-(I)] was synthesized and tested as described herein.
# The test article for this study was weighed and dissolved in 10% DMSO (Fischer) diluted with PEG 300 (Acros Organics, NJ) for preparation of the appropriate dosage concentrations. The animals were housed in groups of 2 to 3 animals per cage. Animals were randomly assigned to one of seven groups consisting of 4 to 5 animals per group. Control groups (intact and ORX) were administered vehicle daily. S-(I) was administered via oral gavage at doses of 0.01, 0.03, 0.1, 0.3, 0.75, and 1 mg/day to both intact and ORX groups. Where appropriate, animals were castrated on day one of the study. Treatment with S-(I) began nine days post ORX and was administered daily via oral gavage for fourteen days.
# The animals were sacrificed under anesthesia (ketamine/xyalzine, 87:13 mg/kg) and body weights were recorded. In addition, ventral prostate, seminal vesicles, and levator ani muscle were removed, individually weighed, normalized to body weight, and expressed as a percentage of intact control. Student's T-test was used to compare individual dose groups to the intact control group. Significance was defined a priori as a P-value <0.05. Ventral prostate and seminal vesicle weights were evaluated as a measure of androgenic activity, whereas levator ani muscle weight was evaluated as a measure of anabolic activity. Blood was collected from the abdominal aorta, centrifuged, and sera were frozen at −80° C. prior to determination of serum hormone levels. Serum luteinizing hormone (LH) and follicle stimulating hormone (FSH) concentrations were determined.
# PR = target: T1, PR (Rattus norvegicus, UniProt Q63449); experiment: Transient transfection luciferase transactivation assay in HEK-293 cells; assay type: cell-based; conditions: 1 nM
# T1 construct: expressed in transfected cells; host or cells: HEK-293
# T1 sequence (Q63449 1-923): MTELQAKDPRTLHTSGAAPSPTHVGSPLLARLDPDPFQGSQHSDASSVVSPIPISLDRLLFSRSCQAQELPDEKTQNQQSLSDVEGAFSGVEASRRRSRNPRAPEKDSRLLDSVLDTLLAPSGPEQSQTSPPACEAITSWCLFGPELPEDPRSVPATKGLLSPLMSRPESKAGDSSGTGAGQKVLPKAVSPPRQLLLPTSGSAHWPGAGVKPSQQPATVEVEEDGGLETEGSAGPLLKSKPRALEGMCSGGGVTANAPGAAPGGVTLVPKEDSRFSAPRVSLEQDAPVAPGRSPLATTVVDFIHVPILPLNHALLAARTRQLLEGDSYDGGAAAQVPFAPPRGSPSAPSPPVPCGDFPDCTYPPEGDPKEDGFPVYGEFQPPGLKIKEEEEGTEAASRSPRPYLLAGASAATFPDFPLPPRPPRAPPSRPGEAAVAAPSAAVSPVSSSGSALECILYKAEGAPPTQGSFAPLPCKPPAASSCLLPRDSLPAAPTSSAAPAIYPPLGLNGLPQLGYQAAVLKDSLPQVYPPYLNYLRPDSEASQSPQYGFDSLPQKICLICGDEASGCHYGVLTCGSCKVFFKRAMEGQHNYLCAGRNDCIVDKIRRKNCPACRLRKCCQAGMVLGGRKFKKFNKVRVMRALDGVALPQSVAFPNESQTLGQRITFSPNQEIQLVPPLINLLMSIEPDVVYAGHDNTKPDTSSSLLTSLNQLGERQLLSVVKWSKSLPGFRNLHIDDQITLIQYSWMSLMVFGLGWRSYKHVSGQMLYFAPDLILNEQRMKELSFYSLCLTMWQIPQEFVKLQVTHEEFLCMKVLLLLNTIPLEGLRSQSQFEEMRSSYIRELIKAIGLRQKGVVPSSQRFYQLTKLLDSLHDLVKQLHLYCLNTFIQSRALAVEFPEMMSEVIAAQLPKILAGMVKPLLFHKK
# CYP2C9 = target: T2, CYP2C9 (Homo sapiens, UniProt P11712); experiment: CYP inhibition screening, recombinant enzyme (fluorescent-based) assay; assay type: in vitro ADME; conditions: human, 30 min
# T2 construct: purchased Gentest, BD Biosciences
# T2 sequence (P11712 whole entry): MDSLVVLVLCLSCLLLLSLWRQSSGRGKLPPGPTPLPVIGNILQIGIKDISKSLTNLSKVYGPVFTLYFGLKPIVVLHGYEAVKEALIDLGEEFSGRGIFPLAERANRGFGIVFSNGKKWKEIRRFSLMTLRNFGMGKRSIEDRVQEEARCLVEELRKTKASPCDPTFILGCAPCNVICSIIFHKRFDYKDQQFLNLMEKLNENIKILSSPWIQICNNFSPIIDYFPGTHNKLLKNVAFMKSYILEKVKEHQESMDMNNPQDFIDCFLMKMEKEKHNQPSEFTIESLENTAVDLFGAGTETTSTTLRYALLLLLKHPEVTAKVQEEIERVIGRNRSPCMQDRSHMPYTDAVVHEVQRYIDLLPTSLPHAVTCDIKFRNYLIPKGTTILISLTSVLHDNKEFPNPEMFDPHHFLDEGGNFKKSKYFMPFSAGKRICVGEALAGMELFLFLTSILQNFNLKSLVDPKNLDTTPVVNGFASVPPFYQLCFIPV
# [2] = system: DMD (−/−) UTRN (−/−) mice; experiment: Double knockout mouse model of Duchenne muscular dystrophy; conditions: 10 mg/kg/day, data cumulative across the SARM groups
# GR = target: T3, GR (Rattus norvegicus, UniProt P06536); experiment: Transient transfection luciferase transactivation assay in HEK-293 cells; assay type: cell-based; conditions: 1 nM
# T3 construct: expressed in transfected cells; host or cells: HEK-293
# T3 sequence (P06536 1-795): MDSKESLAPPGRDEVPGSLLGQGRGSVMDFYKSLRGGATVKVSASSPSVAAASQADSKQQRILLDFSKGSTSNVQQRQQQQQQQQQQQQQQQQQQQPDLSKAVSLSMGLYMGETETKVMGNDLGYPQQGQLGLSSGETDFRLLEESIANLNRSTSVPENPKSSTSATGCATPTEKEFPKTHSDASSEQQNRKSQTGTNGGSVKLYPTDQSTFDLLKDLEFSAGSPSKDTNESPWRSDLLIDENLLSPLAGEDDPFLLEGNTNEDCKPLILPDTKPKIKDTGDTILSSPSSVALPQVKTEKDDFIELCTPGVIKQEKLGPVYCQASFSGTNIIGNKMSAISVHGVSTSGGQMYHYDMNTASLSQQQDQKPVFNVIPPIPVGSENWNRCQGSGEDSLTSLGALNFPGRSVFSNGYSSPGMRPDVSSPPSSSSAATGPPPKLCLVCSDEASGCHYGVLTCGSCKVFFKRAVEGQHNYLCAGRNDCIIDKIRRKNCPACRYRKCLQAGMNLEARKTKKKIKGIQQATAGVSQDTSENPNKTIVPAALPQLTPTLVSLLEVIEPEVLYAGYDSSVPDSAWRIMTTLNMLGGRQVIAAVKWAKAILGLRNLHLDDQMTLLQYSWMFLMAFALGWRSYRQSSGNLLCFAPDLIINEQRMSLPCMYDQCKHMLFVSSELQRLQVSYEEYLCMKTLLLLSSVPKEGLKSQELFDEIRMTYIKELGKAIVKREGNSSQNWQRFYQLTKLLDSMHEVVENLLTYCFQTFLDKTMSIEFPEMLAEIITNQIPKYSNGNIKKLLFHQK
# MR = target: T4, MR (Rattus norvegicus, UniProt P22199); experiment: as above; assay type: cell-based; conditions: 1 nM
# T4 construct: expressed in transfected cells; host or cells: HEK-293
# T4 sequence (P22199 1-981): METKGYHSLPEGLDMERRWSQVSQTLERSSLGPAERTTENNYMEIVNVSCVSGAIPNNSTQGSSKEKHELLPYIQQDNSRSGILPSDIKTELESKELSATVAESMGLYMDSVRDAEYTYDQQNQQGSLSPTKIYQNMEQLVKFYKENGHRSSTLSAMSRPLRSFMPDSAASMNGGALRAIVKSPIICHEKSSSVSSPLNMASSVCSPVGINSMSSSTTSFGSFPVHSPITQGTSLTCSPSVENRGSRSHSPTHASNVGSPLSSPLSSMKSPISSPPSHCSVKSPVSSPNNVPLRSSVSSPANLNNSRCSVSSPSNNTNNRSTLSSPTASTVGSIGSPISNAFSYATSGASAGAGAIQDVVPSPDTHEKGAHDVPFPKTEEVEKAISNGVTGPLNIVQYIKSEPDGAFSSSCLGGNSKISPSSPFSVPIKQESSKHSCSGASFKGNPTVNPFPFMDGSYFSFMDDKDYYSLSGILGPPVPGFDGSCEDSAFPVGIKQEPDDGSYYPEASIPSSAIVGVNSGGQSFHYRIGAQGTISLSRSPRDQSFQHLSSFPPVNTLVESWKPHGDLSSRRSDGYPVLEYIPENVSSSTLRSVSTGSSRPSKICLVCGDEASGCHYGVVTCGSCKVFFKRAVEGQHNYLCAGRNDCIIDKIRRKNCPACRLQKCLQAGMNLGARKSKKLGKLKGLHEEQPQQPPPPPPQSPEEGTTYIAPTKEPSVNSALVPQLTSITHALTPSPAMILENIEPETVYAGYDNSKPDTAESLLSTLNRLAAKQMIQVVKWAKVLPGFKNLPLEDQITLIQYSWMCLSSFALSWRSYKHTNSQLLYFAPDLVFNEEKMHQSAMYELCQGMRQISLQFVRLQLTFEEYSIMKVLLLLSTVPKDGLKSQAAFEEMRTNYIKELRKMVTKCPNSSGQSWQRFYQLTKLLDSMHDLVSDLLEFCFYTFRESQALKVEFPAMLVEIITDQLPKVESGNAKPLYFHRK
compound,measurement,setting,value
"CC(=O)Nc1ccc(OC[C@](C)(O)C(=O)Nc2ccc([N+](=O)[O-])c(C(F)(F)F)c2)cc1 [S-4, S-3-(4-acetylaminophenoxy)-2-hydroxy-2-methyl-N-(4-nitro-3-trifluoromethylphenyl)propanamide, reference compound]",Maximal stimulation of levator ani muscle weight,[1],101%
"CC(=O)[C@H]1CC[C@H]2[C@@H]3CCC4=CC(=O)CC[C@]4(C)[C@H]3CC[C@]12C [progesterone, reference compound]",PR activity induced by known ligand,PR,23 fold
"Nc1ccc(S(=O)(=O)Nc2ccnn2-c2ccccc2)cc1 [Sulfaphenazole, reference compound]",Inhibition of CYP2C9 activity (in words),CYP2C9,potently inhibited
C[C@](O)(COc1ccc(C#N)c(F)c1)C(=O)Nc1ccc(C#N)c(C(F)(F)F)c1 [S-(V)],Ability to be ambulatory (in words),[2],enhanced the ability of these mice to be ambulatory
same,Deterioration of body weight (in words),[2],delayed the deterioration
same,Deterioration of grip strength (in words),[2],delayed the deterioration
same,Deterioration of lean mass (in words),[2],delayed the deterioration
"C[C@@H]1C[C@H]2[C@@H]3CCC4=CC(=O)C=C[C@]4(C)[C@@]3(F)[C@@H](O)C[C@]2(C)[C@@]1(O)C(=O)CO [dexamethasone, reference compound]",GR activity induced by known ligand,GR,70 fold
"CCC(=O)O[C@H]1CC[C@H]2[C@@H]3CCC4=CC(=O)CC[C@]4(C)[C@H]3CC[C@]12C [Testosterone propionate, reference compound]",Maximal stimulation of levator ani muscle weight,[1],104%
C[C@](O)(COc1ccc(C#N)cc1)C(=O)Nc1ccc(C#N)c(C(F)(F)F)c1 [S-(IV)],Ability to be ambulatory (in words),[2],enhanced the ability of these mice to be ambulatory
same,Deterioration of body weight (in words),[2],delayed the deterioration
same,Deterioration of grip strength (in words),[2],delayed the deterioration
same,Deterioration of lean mass (in words),[2],delayed the deterioration
"CC#C[C@]1(O)CC[C@H]2[C@@H]3CCC4=CC(=O)CCC4=C3[C@@H](c3ccc(N(C)C)cc3)C[C@@]21C [RU486, reference compound]","Inhibition of PR activity, antagonist mode (in words)",PR,completely inhibited
"C[C@]12CCC(=O)C=C1CC[C@@H]1[C@@H]2[C@@H](O)C[C@]2(C=O)[C@@H](C(=O)CO)CC[C@@H]12 [aldosterone, reference compound]",MR activity induced by known ligand,MR,60 fold
